Test results taken from patent US11214803B2, “Modulators of YAP1 expression” (Ionis Pharmaceuticals, Inc., priority 2019, dated 2022).
Strand notation (5' to 3'): a small letter for the sugar, then the base; units joined by * are phosphorothioate-linked, units joined directly phosphodiester-linked; [ ] holds rarer units or linkages, { } end groups; capitals alone tell only the bases. k = constrained ethyl (cEt); [5mC] = 5-methylcytosine; d = 2'-deoxy (DNA)

How the values were obtained:
[1] = Tolerability in CD-1 mice, body and organ weights (Example 15); format: in vivo; conditions: male CD-1 mice, 50 mg/kg s.c. twice a week for four weeks (8 treatments), end of study (day 26)
Method: Groups of four male CD-1 mice at 4-5 weeks of age (obtained from Charles River) were injected subcutaneously twice a week for four weeks (for a total of 8 treatments) with 50 mg/kg of modified oligonucleotides. One group of male CD-1 mice was injected with PBS. Mice were euthanized on day 26 post start of treatment (24 hrs following the final administration).
Body weights of CD-1 mice were measured at the end of the study, and the average body weight for each group is presented in the table below. Modified oligonucleotides that caused any changes in organ weights outside the expected range for modified oligonucleotides were excluded from further studies.

SNU449 cells = assay: Cell proliferation assay in SNU449 cells in combination with sorafenib, CellTiter-Glo (Example 48); format: cell-based, human; conditions: 144 hours
Method: (§1) Modified oligonucleotides described in the studies above were tested at various doses in hepatocellular carcinoma cell line SNU449. ION No. 792169, described herein above, was used as a control modified oligonucleotide. ION No. 715487 was used to target Yap1 RNA. […] After approximately 48 hours, Yap1 mRNA levels were measured.
144 hours post treatment, proliferation of SNU449 cells was measured using the luminescent cell viability CellTiter-Glo® 2.0 Assay (Promega). Results are presented in the tables below as percent control of the amount of luminescence in samples treated with modified oligonucleotides relative to untreated control cells (% UTC).

Yap1 mRNA [2] = assay: Yap1 mRNA in SNU449 cells in combination with sorafenib (Example 48); format: cell-based, human; conditions: free uptake, approximately 48 hours
Method: as §1
Yap1 mRNA knockdown in tumors was measured by RT-qPCR as previously described using the Human Yap1 primer-probe set RTS4814. Yap1 mRNA levels were normalized to actin-beta content, as measured by primer probe set RTS5002. Results are presented in the tables below as percent control of the amount of Yap1 mRNA relative to PBS treated cells (% control).

[3] = Tolerability in Balb/c mice, plasma chemistry markers (Example 11); format: in vivo; conditions: 50 mg/kg subcutaneously twice a week for four weeks
Procedure, shortened: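 Male Balb/c mice aged 4-6 weeks received 50 mg/kg modified oligonucleotide subcutaneously twice weekly for four weeks (8 doses), with a PBS control group. Plasma chemistry markers were assessed after euthanasia on day 26, 24 hours after the final dose.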

[4] = Tolerability in Sprague-Dawley rats, body and organ weights (Example 20); format: in vivo; conditions: male Sprague-Dawley rats, 50 mg/kg s.c. weekly for 6 weeks (7 doses); for Kidney weight / Liver weight / Spleen weight: end of study; for body weight: terminal, prior to necropsy
Method: Terminal body weight was measured prior to necropsy. Ionis oligonucleotides that caused any changes in organ weights outside the expected range for modified oligonucleotides were excluded from further studies.

SNU449 xenograft tumor = assay: Tumor volume in SNU449 xenograft tumor model (first Example 30); format: in vivo, human; conditions: 50 mg/kg
Method: (§2) Modified oligonucleotides described in the studies above were tested in a hepatocellular carcinoma SNU449 xenograft tumor model. A control oligonucleotide 792169 was also tested.
(§3) Five million SNU449 cells in 30% matrigel were implanted subcutaneously into the fatpads of female NOD.Cg-Prkdcscid II2rgtmlWjl/SzJ mice (from Jackson Laboratory) at 4-6 weeks of age. 43 days post implantation (when tumors had reached approximately 100 mm^3 in size), groups of eight mice each were administered with 50 mg/kg modified oligonucleotide daily for 10 days (loading dose), following which they were administered with 50 mg/kg modified oligonucleotide four times a week for one week, following which they were dosed with 50 mg/kg modified oligonucleotide thrice weekly until the end of the study. Animals were sacrificed and tumors were collected on day 119 post implantation. Yap1 mRNA knockdown in tumors was measured by RT-qPCR as previously described using the Human Yap1 primer-probe set RTS4814. Yap1 mRNA levels were normalized to actin-beta content, as measured by primer probe set RTS5002. Results are presented in the tables below as percent control of the amount of Yap1 mRNA relative to PBS treated animals (% control).
Tumor volumes were also measured at the indicated days in the table below

Yap1 mRNA [5] = assay: Yap1 mRNA levels in SNU449 xenograft tumors (first Example 30); format: in vivo, human; conditions: SNU449 xenograft mice, 50 mg/kg, tumors collected day 119 post implantation, relative to PBS
Method: as §2, §3

[6] = oligonucleotide at 0.04 uM, sorafenib 0 uM
[7] = oligonucleotide at 0.04 uM, sorafenib 0.37 uM
[8] = oligonucleotide at 0.04 uM, sorafenib 3.33 uM
[9] = oligonucleotide at 0.04 uM, sorafenib 10 uM
[10] = oligonucleotide at 0.04 uM, sorafenib […]
[11] = oligonucleotide at 0.2 uM, sorafenib 0 uM
[12] = oligonucleotide at 0.2 uM, sorafenib 0.37 uM
[13] = oligonucleotide at 0.2 uM, sorafenib 3.33 uM
[14] = oligonucleotide at 0.2 uM, sorafenib 10 uM
[15] = oligonucleotide at 0.2 uM, sorafenib […]
[16] = oligonucleotide at 1 uM, sorafenib 0 uM
[17] = oligonucleotide at 1 uM, sorafenib 0.37 uM
[18] = oligonucleotide at 1 uM, sorafenib 3.33 uM
[19] = oligonucleotide at 1 uM, sorafenib 10 uM
[20] = oligonucleotide at 1 uM, sorafenib […]
[21] = oligonucleotide at 5 uM, sorafenib 0 uM
[22] = oligonucleotide at 5 uM, sorafenib 0.37 uM
[23] = oligonucleotide at 5 uM, sorafenib 3.33 uM
[24] = oligonucleotide at 5 uM, sorafenib 10 uM
[25] = oligonucleotide at 5 uM, sorafenib […]

“715487 (kA*kT*kT*dA*d[5mC]*dT*dT*d[5mC]*dA*dT*dA*dG*d[5mC]*kT*kT*kA) [compound 715487]” showed a Kidney weight [1] of 0.59 g, a Liver weight [1] of 2.24 g and a Spleen weight [1] of 0.21 g. The body weight [1] was 41 g, the “Antiproliferative effect (cell proliferation, luminescence)” value (“Antiproliferative effect” for short) (SNU449 cells; [6]) was 98 % UTC and the “Antiproliferative effect” value (SNU449 cells; [7]) was 102 % UTC. For the same substance, the “Antiproliferative effect” value (SNU449 cells; [8]) was 27 % UTC, the “Antiproliferative effect” value (SNU449 cells; [9]) was 2 % UTC and the “Antiproliferative effect” value (SNU449 cells; [10]) was 93 % UTC. For the same substance, the “Antiproliferative effect” value (SNU449 cells; [11]) was 93 % UTC, the “Antiproliferative effect” value (SNU449 cells; [12]) was 94 % UTC and the “Antiproliferative effect” value (SNU449 cells; [13]) was 12 % UTC. The “Antiproliferative effect” value (SNU449 cells; [14]) was 2 % UTC, the “Antiproliferative effect” value (SNU449 cells; [15]) was 77 % UTC and the “Antiproliferative effect” value (SNU449 cells; [16]) was 84 % UTC. The “Antiproliferative effect” value (SNU449 cells; [17]) was 83 % UTC, the “Antiproliferative effect” value (SNU449 cells; [18]) was 5 % UTC and the “Antiproliferative effect” value (SNU449 cells; [19]) was 1 % UTC. For the same substance, the “Antiproliferative effect” value (SNU449 cells; [20]) was 45 % UTC, the “Antiproliferative effect” value (SNU449 cells; [21]) was 64 % UTC and the “Antiproliferative effect” value (SNU449 cells; [22]) was 64 % UTC. For the same substance, the “Antiproliferative effect” value (SNU449 cells; [23]) was 3 % UTC, the “Antiproliferative effect” value (SNU449 cells; [24]) was 1 % UTC and the “Antiproliferative effect” value (SNU449 cells; [25]) was 23 % UTC. The “YAP1 mRNA” value (Yap1 mRNA [2]; [6]) was 98 % control, the “YAP1 mRNA” value (Yap1 mRNA [2]; [7]) was 97 % control and the “YAP1 mRNA” value (Yap1 mRNA [2]; [8]) was 83 % control. The “YAP1 mRNA” value (Yap1 mRNA [2]; [9]) was 78 % control, the “YAP1 mRNA” value (Yap1 mRNA [2]; [10]) was 77 % control and the “YAP1 mRNA” value (Yap1 mRNA [2]; [11]) was 54 % control. For the same substance, the “YAP1 mRNA” value (Yap1 mRNA [2]; [12]) was 51 % control, the “YAP1 mRNA” value (Yap1 mRNA [2]; [13]) was 45 % control and the “YAP1 mRNA” value (Yap1 mRNA [2]; [14]) was 46 % control. For the same substance, the “YAP1 mRNA” value (Yap1 mRNA [2]; [15]) was 44 % control, the “YAP1 mRNA” value (Yap1 mRNA [2]; [16]) was 30 % control and the “YAP1 mRNA” value (Yap1 mRNA [2]; [17]) was 23 % control. For the same substance, the “YAP1 mRNA” value (Yap1 mRNA [2]; [18]) was 21 % control, the “YAP1 mRNA” value (Yap1 mRNA [2]; [19]) was 20 % control and the “YAP1 mRNA” value (Yap1 mRNA [2]; [20]) was 22 % control. The “YAP1 mRNA” value (Yap1 mRNA [2]; [21]) was 9 % control, the “YAP1 mRNA” value (Yap1 mRNA [2]; [22]) was 8 % control and the “YAP1 mRNA” value (Yap1 mRNA [2]; [23]) was 7 % control. For the same substance, the “YAP1 mRNA” value (Yap1 mRNA [2]; [24]) was 8 % control, the “YAP1 mRNA” value (Yap1 mRNA [2]; [25]) was 7 % control and the ALT [3] was 59 U/L. For the same substance, the AST [3] was 81 U/L, the BUN [3] was 16 mg/dL and the TBIL [3] was 0.18 mg/dL.
“958499 (ATTAGAGTATGTGGCA; 3-10-3 cEt gapmer, further chemistry not given here) [compound 958499]” showed a Kidney weight [4] of 3.1 g, a Liver weight [4] of 14 g and a Spleen weight [4] of 2.8 g. It also gave a body weight [4] of 333 g.
In the case of “1198440 (AAGTGTATGTCAGAAG; cEt, 2'-MOE, 5-methylcytosine, phosphorothioate modifications, further chemistry not given here) [compound 1198440]”, the “Average Tumor Volume” value (SNU449 xenograft tumor; day 43 post tumor implantation) was 111 mm^3, the “Average Tumor Volume” value (SNU449 xenograft tumor; day 46 post tumor implantation) was 152 mm^3 and the “Average Tumor Volume” value (SNU449 xenograft tumor; day 50 post tumor implantation) was 168 mm^3. For the same substance, the “Average Tumor Volume” value (SNU449 xenograft tumor; day 53 post tumor implantation) was 201 mm^3, the “Average Tumor Volume” value (SNU449 xenograft tumor; day 57 post tumor implantation) was 242 mm^3 and the “Average Tumor Volume” value (SNU449 xenograft tumor; day 60 post tumor implantation) was 263 mm^3. For the same substance, the “Average Tumor Volume” value (SNU449 xenograft tumor; day 64 post tumor implantation) was 338 mm^3, the “Average Tumor Volume” value (SNU449 xenograft tumor; day 67 post tumor implantation) was 376 mm^3 and the “Average Tumor Volume” value (SNU449 xenograft tumor; day 71 post tumor implantation) was 373 mm^3. For the same substance, the “Average Tumor Volume” value (SNU449 xenograft tumor; day 75 post tumor implantation) was 401 mm^3, the “Average Tumor Volume” value (SNU449 xenograft tumor; day 78 post tumor implantation) was 429 mm^3 and the “Average Tumor Volume” value (SNU449 xenograft tumor; day 81 post tumor implantation) was 514 mm^3. The “Average Tumor Volume” value (SNU449 xenograft tumor; day 85 post tumor implantation) was 606 mm^3, the “Average Tumor Volume” value (SNU449 xenograft tumor; day 88 post tumor implantation) was 613 mm^3 and the “Average Tumor Volume” value (SNU449 xenograft tumor; day 92 post tumor implantation) was 690 mm^3. The “Average Tumor Volume” value (SNU449 xenograft tumor; day 94 post tumor implantation) was 773 mm^3, the “Average Tumor Volume” value (SNU449 xenograft tumor; day 98 post tumor implantation) was 804 mm^3 and the “Average Tumor Volume” value (SNU449 xenograft tumor; day 101 post tumor implantation) was 818 mm^3. For the same substance, the “Average Tumor Volume” value (SNU449 xenograft tumor; day 105 post tumor implantation) was 894 mm^3, the “Average Tumor Volume” value (SNU449 xenograft tumor; day 108 post tumor implantation) was 921 mm^3 and the “Average Tumor Volume” value (SNU449 xenograft tumor; day 119 post tumor implantation) was 978 mm^3. The “Yap1 mRNA levels in tumors” value (Yap1 mRNA [5]) was 34 % control.
For “1076453 (GTAATATTGCAATCTG; 3-10-3 cEt gapmer, further chemistry not given here) [compound 1076453]”, the Kidney weight [4] was 3.2 g, the Liver weight [4] was 16 g and the Spleen weight [4] was 2.1 g. It also gave a body weight [4] of 371 g.
